# Molecular target: MarA (Escherichia coli, UniProt P0ACH5)
# Assay: MarA-activated selective marker (ccdB) cell survival assay, Example 2
# Format: cell-based
# Parameters: key: * indicates good inhibition of MarA; ** indicates very good inhibition of MarA
# Settings: inhibition of MarA: cell survival under conditions of MarA expression (ccdB under MarA-activated promoter)
# From the text: In the absence of Mar A, the expression of the selective marker would be silent. For example, in the case of regulation of the cytotoxic gene ccdB, the gene would be silent and the cells would survive. Synthesis of MarA from an inducible plasmid in a suitable host would result in the activation of the MarA responsive activatable promoter and expression of the selective marker. In the case of ccdB, the gene would be expressed and result in cell death. Compounds that inhibit MarA would be identified as those that permit cell survival under conditions of MarA expression.
# In the absence of MarA, the expression of the selective marker is silent and cells survive. Synthesis of MarA from an inducible plasmid in a bacterial or yeast cell leads to the activation of the inaA promoter, expression of ccdB, and subsequently results in cell death. Compounds that inhibit MarA are those that permit cell survival under conditions of MarA expression. In Table 4, * indicates good inhibition of MarA and ** indicates very good inhibition of MarA.
# Chain of MarA (P0ACH5 whole entry, looked up): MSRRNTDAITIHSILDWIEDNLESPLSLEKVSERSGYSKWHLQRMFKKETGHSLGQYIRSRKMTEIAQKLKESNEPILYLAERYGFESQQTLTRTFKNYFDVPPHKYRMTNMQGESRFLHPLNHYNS
row,SMILES,MarA inhibition class
1,"CCCSc1nnc2c(n1)OC(c1ccc(OC)cc1)Nc1ccccc1-2 (centres unmarked) [K, 6-(4-Methoxy-phenyl)-3-propylsulfanyl-6,7-dihydro-5-oxa-1,2,4,7-tetraaza-dibenzo[a,c]cycloheptene]",*
2,"c1ccc(COn2c(-c3ccccc3)nc3ncccc32)cc1 [AX, 1-(benzyloxy)-2-phenyl-1H-imidazo[4,5-b]pyridine]",**
3,"CCOC(=O)C1=C(C)N=c2sc(=Cc3ccc(-c4cccc(C(=O)O)c4)o3)c(=O)n2C1c1c(OC)ccc2ccccc12 (centres unmarked) [N, 2-[5-(3-Carboxy-phenyl)-furan-2-ylmethylene]-5-(2-methoxy-naphthalen-1-yl)-7-methyl-3-oxo-2,3-dihydro-5H-thiazolo[3,2-a]pyrimidine-6-carboxylicacid ethyl ester]",**
4,"CCCCSc1nnc2c(n1)OC(c1ccc(OC)cc1OC)Nc1ccccc1-2 (centres unmarked) [H, 3-Butylsulfanyl-6-(2,4-dimeethoxy-phenyl)-6,7-dihydro-5-oxa-1,2,4,7-tetraaza-dibenzo[a,c]cycloheptene]",*
5,"Cc1ccc(COn2c(-c3ccccc3)nc3ccc([N+](=O)[O-])cc32)cc1 [AJ, 1-(4-Methyl-benzyloxy)-6-nitro-2-phenyl-1H-benzoimidazole]",*
6,"CCOC(=O)C(C(N)=O)C1(O)OC(c2ccc(C)cc2)=CC1=O (centres unmarked) [BC, 2-(2-Hydroxy-3-oxo-5-p-tolyl-2,3-dihydro-furan-2-yl)-malonamic acid ethylester]",*
7,"CCCSc1nnc2c(n1)OC(c1ccc(OCc3ccccc3)cc1)Nc1ccccc1-2 (centres unmarked) [F, 6-(4-Benzyloxy-phenyl)-3-propylsulfanyl-6,7-dihydro-5-oxa-1,2,4,7-tetraaza-dibenzo[a,c]cycloheptene]",**
8,"O=c1cc(-c2ccc(O)cc2)oc2ccccc12 [BG, 2-(4-hydroxyphenyl)-4H-chromen-4-one]",*
9,"C=CCOc1ccc(C2Nc3ccccc3-c3nnc(SCCCC)nc3O2)cc1 (centres unmarked) [I, 6-(4-Allyloxy-phenyl)-3-butylsulfanyl-6,7-dihydro-5-oxa-1,2,4,7-tetraaza-dibenzo[a,c]cycloheptene]",**
10,"CN(C)c1ccc(-c2cc(=O)c3ccccc3o2)cc1 [AW, 2-[4-(dimethylamino)phenyl]-4H-chromen-4-one]",**
11,"CCSc1nnc2c(n1)OC(c1ccc(O)c(O)c1)Nc1ccccc1-2 (centres unmarked) [E, 4-(3-Ethylsulfanyl-6,7-dihydro-5-oxa-1,2,4,7-tetraza-dibenzo[a,c]cyclohepten-6-yl)-benzene-1,2-diol]",*
12,"CCOC(=O)C1=C(C)N=c2s/c(=C/c3ccc(-c4cccc(C(F)(F)F)c4)o3)c(=O)n2C1c1ccccc1 (centres unmarked) [U, 7-Methyl-3-oxo-5-phenyl-2-[5-(3-trifluoromethyl-phenyl)-furan-2-ylmethylene]-2,3-dihydro-5H-thiazolo[3,2-a]pyrimidine-6-carboxylicacid ethyl ester]",**
13,"CCCSc1nnc2c(n1)OC(c1ccc(-c3cccc([N+](=O)[O-])c3)o1)Nc1ccccc1-2 (centres unmarked) [L, 6-[5-(3-Nitro-phenyl)-furan-2-yl]-3-propylsulfanyl-6,7-dihydro-5-oxa-1,2,4,7-tetraaza-dibenzo[a,c]cycloheptane]",**
14,"O=[N+]([O-])c1ccc2nc(-c3ccccc3)n(OCc3ccccc3)c2c1 [AI, 1-Benzyloxy-6-nitro-2-phenyl-1H-benzoimidazole]",**
15,"O=c1cc(-c2ccc(F)cc2)oc2ccccc12 [BE, 2-(4-fluorophenyl)-4H-chromen-4-one]",*
16,"CCOc1ccc(C2Nc3ccccc3-c3nnc(SC)nc3O2)cc1 (centres unmarked) [B, 6-(4-Ethoxy-phenyl)-3-methylsulfanyl-6,7-dihydro-5-oxa-1,2,4,7-tetraaza-dibenzo[a,c]cycloheptene]",*
17,"O=c1/c(=C\c2c[nH]nc2-c2ccccc2)sc2nc3ccccc3n12 [M, 2-(3-Phenyl-1H-pyrazol-4-ylmethylene)-benzo[4,5]imidazo[2,1-b]thiazol-3-one]",**
18,"CSc1nnc2c(n1)OC(c1ccc(-c3ccc([N+](=O)[O-])cc3)o1)Nc1ccccc1-2 (centres unmarked) [D, 3-Methylsulfanyl-6-[5-(4-nitro-phenyl)-furan-2-yl]-6,7-dihydro-5-oxa-1,2,4,7-tetraaza-dibenzo[a,c]cycloheptene]",*
19,"COc1ccc2c(=O)cc(-c3ccccc3)oc2c1 [BA, 7-methoxy-2-phenyl-4H-chromen-4-one]",*

row,SMILES,MarA inhibition class
1,"Cn1c(=O)c2c3oc(-c4ccc([N+](=O)[O-])cc4)nc3c(=O)n(-c3ccccc3)c2n(C)c1=O [AK, 6,8-Dimethyl-2-(4-nitro-phenyl)-5-phenyl-5H,6H-1-oxa-3,5,6,8-tetraaza-cyclopenta[a]naphthalene-4,7,9-trione]",**
2,"CCOC(=O)C1=C(C)N=c2sc(=Cc3ccc(-c4ccc([N+](=O)[O-])cc4C)o3)c(=O)n2C1c1ccc2c(c1)OCO2 (centres unmarked) [P, 5-Benzo[1,3]dioxol-5-yl-7-methyl-2-[5-(2-methyl-4-nitro-phenyl)-furan-2-ylmethylene]-3-oxo-2,3-dihydro-5H-thiazolo[3,2-a]pyrimidine-6-carboxylicacid ethyl ester]",*
3,"N#Cc1c(-c2ccc3c(c2)OCO3)c(C#N)c2nc3ccccc3n2c1N [AB, 1-Amino-3-benzo[1,3]dioxol-5-yl-benzo[4,5]imidazo[1,2-a]pyridine-2,4-dicarbonitrile]",**
4,"O=C1C=Cc2ccccc2/C1=N/Oc1ccc2noc3c2c1C(=O)c1ccccc1-3 [Z, [1,2]Naphthoquinone 1-[O-(6-oxo-6H-anthra[1,9-cd]isoxazol-5-yl)-oxime]]",*
5,"O=C(O)COn1c(-c2ccccc2)nc2ccc([N+](=O)[O-])cc21 [BD, 2-[(6-nitro-2-phenyl-1H-1,3-benzimidazol-1-yl)oxy]acetic acid]",*
6,"CSc1nnc2c(n1)OC(c1ccc([N+](=O)[O-])o1)Nc1ccccc1-2 (centres unmarked) [C, 3-Methylsulfanyl-6-(5-nitro-furan-2-yl)-6,7-dihydro-5-oxa-1,2,4,7-tetraaza-dibenzo[a,c]cycloheptene]",*
7,"COn1c(-c2ccc(C)cc2)nc2ncccc21 [BF, 1-methoxy-2-(4-methylphenyl)-1H-imidazo[4,5-b]pyridine]",*
8,"O=C1C(=C2NC(c3ccccn3)C3C(=O)N(c4ccccc4)C(=O)C23)C(=O)c2ccccc21 (centres unmarked) [AF, 4-(1,3-Dioxo-indan-2-ylidene)-2-phenyl-6-pyridin-2-yl-tetrahydro-pyrrolo[3,4-c]pyrrole-1,3-dione]",**
9,"Cc1ccc(-c2nc3c(=O)n(-c4ccccc4)c4c(c(=O)n(C)c(=O)n4C)c3o2)cc1 [AL, 6,8-Dimethyl-5-phenyl-2-p-tolyl-5H,6H-1-oxa-3,5,6,8-tetraaza-cyclopenta[a]naphthalene-4,7,9-trione]",*
10,"CCOC(=O)C1=C(C)N=c2sc(=Cc3ccc(-c4ccc(C)c([N+](=O)[O-])c4)o3)c(=O)n2C1c1ccc(N(C)C)cc1 (centres unmarked) [X, 5-(4-Dimethylamino-phenyl)-7-methyl-2-[5-(4-methyl-3-nitro-phenyl)-furan-2-ylmethylene]-3-oxo-2,3-dihydro-5H-thiazolo[3,2-a]pyrimidine-6-carboxylicacid ethyl ester]",**
11,"CSc1nnc2c(n1)OC(c1ccc(I)o1)Nc1ccccc1-2 (centres unmarked) [A, 6-(5-Iodo-furan-2-yl)-3-methylsulfanyl-6,7-dihydro-5-oxa-1,2,4,7-tetraaza-dibenzo[a,c]cycloheptene]",**
12,"O=[N+]([O-])c1ccc2nc(-c3ccccc3)n(OCc3cccc(C(F)(F)F)c3)c2c1 [AG, 6-Nitro-2-phenyl-1-(3-trifluoromethyl-benzyloxy)-1H-benzoimidazole]",**
13,"O=c1cc(-c2ccccc2)oc2ccc(F)cc12 [AZ, 6-fluoro-2-phenyl-4H-chromen-4-one]",**
14,"CSc1cccc(NC(=O)CSc2nnc(-c3ccc4nonc4c3)n2C)c1 [AE, 2-(5-Benzo[1,2,5]oxadiazol-5-yl-4-methyl-4H-[1,2,4]triazol-3-ylsulfanyl)-N-(3-methylsulfanyl-phenyl)-acetamide]",*
15,"COC(=O)c1ccccc1NC(=O)CSc1nnc(-c2ccco2)n1-c1ccccc1 [AC, 2-[2-(5-Furan-2-yl-4-phenyl-4H-[1,2,4]triazol-3-ylsulfanyl)-acetylamino]-benzoic acid methyl ester]",*
16,"O=C1C(=C2NC(c3ccccn3)C3C(=O)N(c4ccccc4)C(=O)C23)C(=O)c2ccccc21 (centres unmarked) [BB, 4-(1,3-dioxo-1,3-dihydro-2H-inden-2-yliden)-2-phenyl-6-(2-pyridinyl)tetrahydro pyrrolo[3,4-c]pyrrole-1,3(2H,3aH)-dione]",*
17,"c1ccc(CSc2ncc(-c3nnnn3-c3ccccc3)c(-c3ccccc3)n2)cc1 [AY, 2-(benzylthio)-4-phenyl-5-(1-phenyl-1H-1,2,3,4-tetrazol-5-yl)pyrimidine]",**
18,"O=C(O)COn1c(-c2ccccc2)nc2ccc([N+](=O)[O-])cc21 [AH, (6-Nitro-2-phenyl-benzoimidazol-1-yloxy)-acetic acid]",**
19,"Cc1cc2nc3s/c(=C/c4c[nH]nc4-c4ccccc4)c(=O)n3c2cc1C [AD, 6,7-Dimethyl-2-(3-phenyl-1H-pyrazol-4-ylmethylene)-benzo[4,5]imidazo[2,1-b]thiazol-3-one]",*
